Laboratory results taken from ChEMBL document CHEMBL4715829, “Heterodimeric Rifampicin-Tobramycin conjugates break intrinsic resistance of Pseudomonas aeruginosa to doxycycline and chloramphenicol in vitro and in a Galleria mellonella in vivo model” (Eur J Med Chem, 2019).
Activity calls are given as the source filed them. The rule behind the calls is not given here.

Key:
Pseudomonas aeruginosa [1] = assay: (§1) Potentiation of chloramphenicol-induced antibacterial activity against Pseudomonas aeruginosa 101885 assessed as fold change in chloramphenicol MIC at 9.8 uM incubated for 18 hrs in presence of chloramphenicol by broth microdilution assay relative to control; format: functional
Pseudomonas aeruginosa [2] = assay: Antibacterial activity against Pseudomonas aeruginosa 262-101856 assessed as fractional inhibitory concentration incubated for 18 hrs in presence of rifampicin by broth microdilution assay; format: functional
Pseudomonas aeruginosa [3] = assay: Potentiation of doxycycline-induced antibacterial activity against Pseudomonas aeruginosa 259-96918 assessed as fold change in doxycycline MIC at 9.8 uM incubated for 18 hrs in presence of doxycycline by broth microdilution assay relative to control; format: functional
Pseudomonas aeruginosa [4] = assay: Antibacterial activity against Pseudomonas aeruginosa 101243 assessed as fractional inhibitory concentration incubated for 18 hrs in presence of minocycline by broth microdilution assay; format: functional
Pseudomonas aeruginosa [5] = assay: as §1, with “PAO750 harboring MexAB-OprM, MexCD-OprJ, MexEF-OprN, Mex JK, MexXY and the OM protein OpmH deletion mutant” for “101885”, “<=9.8” for “9.8”, “assay” for “assay relative to control”; format: functional; details: dose microM <=9.8
Pseudomonas aeruginosa [6] = assay: Potentiation of doxycycline-induced antibacterial activity against Pseudomonas aeruginosa 114228 assessed as fold change in doxycycline MIC at 9.8 uM incubated for 18 hrs in presence of doxycycline by broth microdilution assay relative to control; format: functional
Pseudomonas aeruginosa [7] = assay: Potentiation of chloramphenicol-induced bactericidal activity against Pseudomonas aeruginosa PAO1 assessed as reduction in bacterial colonies at 4.9 to 9.8 microM incubated for upto 24 hrs in LB medium in presence of chloramphenicol followed by plating on agar plate and measured after 20 hrs by time-kill assay; format: functional, organism-based; details: dose 4.9-9.8 µM, time hrs <=44
Pseudomonas aeruginosa [8] = assay: Potentiation of doxycycline-induced antibacterial activity against Pseudomonas aeruginosa PAO750 harboring MexAB-OprM, MexCD-OprJ, MexEF-OprN, Mex JK, MexXY and the OM protein OpmH deletion mutant assessed as fold change in doxycycline MIC at <=9.8 uM incubated for 18 hrs in presence of doxycycline by broth microdilution assay; format: functional; details: dose microM <=9.8
Pseudomonas aeruginosa [9] = assay: Antibacterial activity against Pseudomonas aeruginosa 262-101856 assessed as potentiation of doxycycline-induced antibacterial activity by measuring doxycycline MIC at 9.8 uM incubated for 18 hrs in presence of doxycycline by broth microdilution assay (reference value: 1024 ug/ml); format: functional
Pseudomonas aeruginosa [10] = assay: Potentiation of doxycycline-induced antibacterial activity against wild type Pseudomonas aeruginosa PAO1 assessed as fold change in doxycycline MIC at <=9.8 uM incubated for 18 hrs in presence of doxycycline by broth microdilution assay; format: functional; details: dose microM <=9.8
Pseudomonas aeruginosa [11] = assay: Potentiation of doxycycycline-induced bactericidal activity against Pseudomonas aeruginosa PAO1 assessed as bacterial viability at 9.8 microM incubated for 9 hrs in LB medium in presence of doxycycline followed by plating on agar plate and measured after 20 hrs by time-kill assay; format: functional; details: time 29 hrs
Pseudomonas aeruginosa [12] = assay: Antibacterial activity against Pseudomonas aeruginosa 260-97103 infected in Galleria mellonella larvae assessed as survival of larvae at 75 mg/kg treated at 3 hrs post-infection in presence of doxycycline and measured after 24 hrs relative to control; format: functional
Pseudomonas aeruginosa [13] = assay: Antibacterial activity against Pseudomonas aeruginosa 114228 assessed as fractional inhibitory concentration index incubated for 18 hrs in presence of tigecycline by broth microdilution assay; format: functional
Pseudomonas aeruginosa [14] = assay: Potentiation of chloramphenicol-induced antibacterial activity against Pseudomonas aeruginosa 101243 assessed as fold change in chloramphenicol MIC at 9.8 uM incubated for 18 hrs in presence of chloramphenicol by broth microdilution assay relative to control; format: functional
Pseudomonas aeruginosa [15] = assay: Antibacterial activity against Pseudomonas aeruginosa 101243 assessed as potentiation of doxycycline-induced antibacterial activity by measuring doxycycline MIC at 9.8 uM incubated for 18 hrs in presence of doxycycline by broth microdilution assay (reference value: 4 ug/ml); format: functional
Pseudomonas aeruginosa [16] = assay: Antibacterial activity against Pseudomonas aeruginosa 101885 assessed as potentiation of chloramphenicol-induced antibacterial activity by measuring chloramphenicol MIC at 9.8 uM incubated for 18 hrs in presence of chloramphenicol by broth microdilution assay (reference value: 512 ug/ml); format: functional
Pseudomonas aeruginosa [17] = assay: Antibacterial activity against Pseudomonas aeruginosa 262-101856 assessed as fractional inhibitory concentration index incubated for 18 hrs in presence of rifampicin by broth microdilution assay; format: functional
Pseudomonas aeruginosa [18] = assay: Antibacterial activity against Pseudomonas aeruginosa 101885 assessed as potentiation of doxycycline-induced antibacterial activity by measuring doxycycline MIC at 9.8 uM incubated for 18 hrs in presence of doxycycline by broth microdilution assay (reference value: 64 ug/ml); format: functional
Pseudomonas aeruginosa [19] = assay: Potentiation of chloramphenicol-induced antibacterial activity against Pseudomonas aeruginosa 114228 assessed as fold change in chloramphenicol MIC at 7.6 uM incubated for 18 hrs in presence of chloramphenicol by broth microdilution assay relative to control; format: functional
Pseudomonas aeruginosa [20] = assay: Antibacterial activity against Pseudomonas aeruginosa 260-97103 assessed as potentiation of doxycycline-induced antibacterial activity by measuring doxycycline MIC at 7.6 uM incubated for 18 hrs in presence of doxycycline by broth microdilution assay (reference value: 16 ug/ml); format: functional
Escherichia coli = assay: Potentiation of chloramphenicol-induced antibacterial activity against Escherichia coli ATCC 25922 assessed as fold change in chloramphenicol MIC at 7.6 uM incubated for 18 hrs in presence of chloramphenicol by broth microdilution assay relative to control; format: functional
Pseudomonas aeruginosa [21] = assay: Antibacterial activity against Pseudomonas aeruginosa 91433 assessed as potentiation of chloramphenicol-induced antibacterial activity by measuring chloramphenicol MIC at 7.6 uM incubated for 18 hrs in presence of chloramphenicol by broth microdilution assay (reference value: 8 ug/ml); format: functional
Pseudomonas aeruginosa [22] = assay: Potentiation of chloramphenicol-induced antibacterial activity against Pseudomonas aeruginosa 264-101354 assessed as fold change in chloramphenicol MIC at 7.6 uM incubated for 18 hrs in presence of chloramphenicol by broth microdilution assay relative to control; format: functional
Pseudomonas aeruginosa [23] = assay: Antibacterial activity against Pseudomonas aeruginosa 262-101856 assessed as reduction in bacterial growth by measuring chloramphenicol MIC at 8 ug/ml incubated for 18 hrs in presence of chloramphenicol by broth microdilution assay (reference value: 2048 ug/ml); format: functional; details: dose 8 µg/ml
Pseudomonas aeruginosa [24] = assay: Antibacterial activity against Pseudomonas aeruginosa 264-101354 assessed as reduction in bacterial growth by measuring chloramphenicol MIC at 8 ug/ml incubated for 18 hrs in presence of chloramphenicol by broth microdilution assay (reference value: 4096 ug/ml); format: functional; details: dose 8 µg/ml
Pseudomonas aeruginosa [25] = assay: Antibacterial activity against Pseudomonas aeruginosa 259-96918 assessed as reduction in bacterial growth by measuring doxycycline MIC at 8 ug/ml incubated for 18 hrs in presence of doxycycline by broth microdilution assay (reference value: 32 ug/ml); format: functional; details: dose 8 µg/ml
Pseudomonas aeruginosa [26] = assay: Antibacterial activity against Pseudomonas aeruginosa 259-96918 assessed as fractional inhibitory concentration incubated for 18 hrs in presence of chloramphenicol by broth microdilution assay; format: functional
Pseudomonas aeruginosa [27] = assay: Antibacterial activity against Pseudomonas aeruginosa 264-101354 assessed as reduction in bacterial growth by measuring doxycycline MIC at 4 ug/ml incubated for 18 hrs in presence of doxycycline by broth microdilution assay (reference value: 64 ug/ml); format: functional; details: dose 4 µg/ml
Pseudomonas aeruginosa [28] = assay: Antibacterial activity against Pseudomonas aeruginosa 262-101856 assessed as reduction in bacterial growth by measuring chloramphenicol MIC at 16 ug/ml incubated for 18 hrs in presence of chloramphenicol by broth microdilution assay (reference value: 2048 ug/ml); format: functional; details: dose 16 µg/ml

Q: `CO[C@H]1/C=C/O[C@@]2(C)Oc3c(C)c(O)c4c(O)c(c(/C=N/N5CCN(Cc6cn(CCCCCCO[C@@H]7[C@@H](O[C@H]8O[C@H](CO)[C@@H](O)[C@H](N)[C@H]8O)[C@H](N)C[C@H](N)[C@H]7O[C@H]7O[C@H](CN)[C@@H](O)C[C@H]7N)nn6)CC5)c(O)c4c3C2=O)NC(=O)/C(C)=C\C=C\[C@H](C)[C@H](O)[C@@H](C)[C@@H](O)[C@@H](C)[C@H](OC(C)=O)[C@@H]1C.Cl.Cl.Cl.Cl.Cl` was tested. Which “fold change (FC)” value (Pseudomonas aeruginosa [1]) did it give?
A: 4

Q: And the FIC (Pseudomonas aeruginosa [2])?
A: <0.008

Q: What about the “fold change (FC)” value (Pseudomonas aeruginosa [3]) of the same compound?
A: 4

Q: What about the FIC (Pseudomonas aeruginosa [4]) of the same compound?
A: <0.063

Q: And the “fold change (FC)” value (Pseudomonas aeruginosa [5])?
A: 4

Q: What about the “fold change (FC)” value (Pseudomonas aeruginosa [6]) of the same compound?
A: 4

Q: What about the Activity (Pseudomonas aeruginosa [7]) of the same compound?
A: Active

Q: What about the “fold change (FC)” value (Pseudomonas aeruginosa [8]) of the same compound?
A: 4

Q: And the MIC (Pseudomonas aeruginosa [9])?
A: 8 µg/mL

Q: What about the “fold change (FC)” value (Pseudomonas aeruginosa [10]) of the same compound?
A: 32

Q: And the Activity (Pseudomonas aeruginosa [11])?
A: <10 CFU/ml

Q: What about the survival at 75 mg/kg (Pseudomonas aeruginosa [12]) of the same compound?
A: 55%

Q: And the “fractional inhibitory concentration index (FICI)” value (Pseudomonas aeruginosa [13])?
A: <0.53

Q: And the “fold change (FC)” value (Pseudomonas aeruginosa [14])?
A: 4

Q: And the MIC (Pseudomonas aeruginosa [15])?
A: 0.25 µg/mL

Q: And the MIC (Pseudomonas aeruginosa [16])?
A: 8 µg/mL

Q: And the “fractional inhibitory concentration index (FICI)” value (Pseudomonas aeruginosa [17])?
A: <0.51

Q: And the MIC (Pseudomonas aeruginosa [18])?
A: 1 µg/mL

Q: With `CO[C@H]1/C=C/O[C@@]2(C)Oc3c(C)c(O)c4c(O)c(c(/C=N/N5CCN(Cc6cn(CCCCCCCCCCCCO[C@@H]7[C@@H](O[C@H]8O[C@H](CO)[C@@H](O)[C@H](N)[C@H]8O)[C@H](N)C[C@H](N)[C@H]7O[C@H]7O[C@H](CN)[C@@H](O)C[C@H]7N)nn6)CC5)c(O)c4c3C2=O)NC(=O)/C(C)=C\C=C\[C@H](C)[C@H](O)[C@@H](C)[C@@H](O)[C@@H](C)[C@H](OC(C)=O)[C@@H]1C.O=C(O)C(F)(F)F.O=C(O)C(F)(F)F.O=C(O)C(F)(F)F.O=C(O)C(F)(F)F.O=C(O)C(F)(F)F` as the compound, how does the “fold change (FC)” value (Pseudomonas aeruginosa [19]) read?
A: 4

Q: What about the MIC (Pseudomonas aeruginosa [20]) of the same compound?
A: 0.125 µg/mL

Q: What about the “fold change (FC)” value (Escherichia coli) of the same compound?
A: 0

Q: And the MIC (Pseudomonas aeruginosa [21])?
A: 1 µg/mL

Q: And the “fold change (FC)” value (Pseudomonas aeruginosa [22])?
A: 4

Q: For `NC[C@H]1O[C@H](O[C@H]2[C@H](O)[C@@H](O[C@H]3O[C@H](CO)[C@@H](O)[C@H](N)[C@H]3O)[C@H](N)C[C@@H]2N)[C@H](N)C[C@@H]1O` [TOBRAMYCIN], which MIC (Pseudomonas aeruginosa [23]) is on record?
A: 2050 µg/mL

Q: What about the MIC (Pseudomonas aeruginosa [24]) of the same compound?
A: 4100 µg/mL

Q: What about the MIC (Pseudomonas aeruginosa [25]) of the same compound?
A: 32 µg/mL

Q: What about the FIC (Pseudomonas aeruginosa [26]) of the same compound?
A: 0.25

Q: `CO[C@H]1/C=C/O[C@@]2(C)Oc3c(C)c(O)c4c(O)c(c(/C=N/N5CCN(C)CC5)c(O)c4c3C2=O)NC(=O)/C(C)=C\C=C\[C@H](C)[C@H](O)[C@@H](C)[C@@H](O)[C@@H](C)[C@H](OC(C)=O)[C@@H]1C` [RIFAMPIN] was tested. Which MIC (Pseudomonas aeruginosa [27]) did it give?
A: 32 µg/mL

Q: And the MIC (Pseudomonas aeruginosa [28])?
A: 2050 µg/mL
